From the supplement of paper PMC8149375

Experiments:
Conditions in all cases: treatment: drug + dasatinib (fixed dose, not stated); 5 days
[1] = test system: 769-P; assay: GI50 of drug in presence of dasatinib; higher = less potent
Procedure: (§1)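 Primary HTS combination arm: 8 RCC cell lines treated with 8 doses (up to 10 uM) of each library drug plus a fixed dose of dasatinib (dose not stated) for 5 days; viability read by CellTiter-Glo and normalised to DMSO. GI50 was fitted with XLfit, AUC is the area under the dose-response curve, and minimum viability is the lowest fraction of DMSO viability across doses.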

[2] = test system: A498; assay: as above
Procedure: as §1

[3] = test system: CAKI-1; assay: as above
Procedure: as §1

[4] = test system: SN12C; assay: as above
Procedure: as §1

[5] = test system: TK-10; assay: as above
Procedure: as §1

[6] = test system: UO-31; assay: as above
Procedure: as §1

[7] = test system: 769-P; assay: minimum viability across doses, drug + dasatinib, relative to DMSO (fraction); higher = less growth inhibition
Procedure: as §1

[8] = test system: 786-O; assay: as above
Procedure: as §1

[9] = test system: A498; assay: as above
Procedure: as §1

[10] = test system: ACHN; assay: as above
Procedure: as §1

[11] = test system: CAKI-1; assay: as above
Procedure: as §1

[12] = test system: SN12C; assay: as above
Procedure: as §1

[13] = test system: TK-10; assay: as above
Procedure: as §1

[14] = test system: UO-31; assay: as above
Procedure: as §1

[15] = test system: 769-P; assay: AUC of dose-response viability curve, drug + dasatinib, normalised to DMSO (arbitrary (AUC of normalised viability)); higher = less growth inhibition
Procedure: as §1

[16] = test system: 786-O; assay: as above
Procedure: as §1

[17] = test system: A498; assay: as above
Procedure: as §1

[18] = test system: ACHN; assay: as above
Procedure: as §1

[19] = test system: CAKI-1; assay: as above
Procedure: as §1

[20] = test system: SN12C; assay: as above
Procedure: as §1

[21] = test system: TK-10; assay: as above
Procedure: as §1

[22] = test system: UO-31; assay: as above
Procedure: as §1

[23] = test system: 786-O; assay: GI50 of drug in presence of dasatinib; higher = less potent
Procedure: as §1

Row | Structure (SMILES) | GI50 of drug [23] [µM] | GI50 of drug [1] [µM] | GI50 of drug [2] [µM] | GI50 of drug [3] [µM] | GI50 of drug [4] [µM] | GI50 of drug [5] [µM] | GI50 of drug [6] [µM] | minimum viability across doses [7] | minimum viability across doses [8] | minimum viability across doses [9] | minimum viability across doses [10] | minimum viability across doses [11] | minimum viability across doses [12] | minimum viability across doses [13] | minimum viability across doses [14] | AUC of dose-response viability curve [15] | AUC of dose-response viability curve [16] | AUC of dose-response viability curve [17] | AUC of dose-response viability curve [18] | AUC of dose-response viability curve [19] | AUC of dose-response viability curve [20] | AUC of dose-response viability curve [21] | AUC of dose-response viability curve [22]
1 | CC1CCN(C(=O)CC#N)C[C@@H]1N(C)c1ncnc2[nH]ccc12.O=C(O)CC(O)(CC(=O)O)C(=O)O (stereo in doubt) + Cc1nc(Nc2ncc(C(=O)Nc3c(C)cccc3Cl)s2)cc(N2CCN(CCO)CC2)n1 [dasatinib] |  | > 10 | > 10 | > 10 | > 10 | > 10 | > 10 | 0.681 | 0.439 | 0.887 | 0.304 | 0.567 | 0.69 | 0.647 | 0.934 | 2.6 | 1.92 | 3.5 | 1.7 | 2.56 | 2.48 | 2.51 | 3.69
2 | O=C1Nc2ccccc2/C1=C1/Nc2ccccc2C1=O [Indirubin] + Cc1nc(Nc2ncc(C(=O)Nc3c(C)cccc3Cl)s2)cc(N2CCN(CCO)CC2)n1 [dasatinib] |  | > 10 | > 10 | > 10 | > 10 | > 10 | > 10 | 0.632 | 0.394 | 0.941 | 0.435 | 0.497 | 0.624 | 0.593 | 0.799 | 2.38 | 1.76 | 3.41 | 1.65 | 2.02 | 2.36 | 2.48 | 3.15
3 | COc1ccc2c(c1OC)N=C(NC(=O)c1cccnc1)N1CCN=C21 [PIK-90] + Cc1nc(Nc2ncc(C(=O)Nc3c(C)cccc3Cl)s2)cc(N2CCN(CCO)CC2)n1 [dasatinib] |  | 1.48 | > 10 | 0.424 | 2.26 | > 10 | 3.82 | 0.268 | 0.388 | 0.762 | 0.235 | 0.136 | 0.52 | 0.552 | 0.434 | 2.03 | 1.76 | 3.11 | 1.7 | 1.82 | 2.21 | 2.3 | 2.69

Further lines, with some results ahead:

Row | GI50 of drug [23] [µM] | Structure (SMILES) | GI50 of drug [1] [µM] | GI50 of drug [2] [µM] | GI50 of drug [3] [µM] | GI50 of drug [4] [µM] | GI50 of drug [5] [µM] | GI50 of drug [6] [µM] | minimum viability across doses [7] | minimum viability across doses [8] | minimum viability across doses [9] | minimum viability across doses [10] | minimum viability across doses [11] | minimum viability across doses [12] | minimum viability across doses [13] | minimum viability across doses [14] | AUC of dose-response viability curve [15] | AUC of dose-response viability curve [16] | AUC of dose-response viability curve [17] | AUC of dose-response viability curve [18] | AUC of dose-response viability curve [19] | AUC of dose-response viability curve [20] | AUC of dose-response viability curve [21] | AUC of dose-response viability curve [22]
4 | > 10 | OCCn1cc(-c2cnc3nnn(Cc4ccc5ncccc5c4)c3n2)cn1 + Cc1nc(Nc2ncc(C(=O)Nc3c(C)cccc3Cl)s2)cc(N2CCN(CCO)CC2)n1 [dasatinib] | > 10 | > 10 |  | > 10 | > 10 | > 10 | 0.651 | 0.702 | 0.872 | 0.448 | 0.408 | 0.614 | 0.688 | 0.926 | 2.44 | 2.79 | 3.25 | 1.77 | 2.02 | 2.32 | 2.57 | 3.41
5 | 2.37 | NC(=O)c1ccc(-c2nc(-c3ccc4c(c3)OCO4)c(-c3ccccn3)[nH]2)cc1 + Cc1nc(Nc2ncc(C(=O)Nc3c(C)cccc3Cl)s2)cc(N2CCN(CCO)CC2)n1 [dasatinib] |  | > 10 | 3 | > 10 | > 10 | > 10 | 0.234 | 0.485 | 0.592 | 0.317 | 0.456 | 0.446 | 0.636 | 0.844 | 1.77 | 2.24 | 3.17 | 2.08 | 2.18 | 2.41 | 2.75 | 3.57
6 | 1.48 | CC[C@H](Nc1ncnc2[nH]cnc12)c1nc2cccc(F)c2c(=O)n1-c1ccccc1 [CAL-101 (GS-1101)] + Cc1nc(Nc2ncc(C(=O)Nc3c(C)cccc3Cl)s2)cc(N2CCN(CCO)CC2)n1 [dasatinib] | 7.53 | > 10 |  | > 10 | 8.33 | 6.29 | 0.477 | 0.298 | 0.843 | 0.341 | 0.0955 | 0.546 | 0.493 | 0.362 | 2.32 | 2.12 | 3.29 | 1.86 | 1.84 | 2.3 | 2.44 | 3.55
